In patent US20240246952A1, “SMALL MOLECULE MODULATORS OF GLUCOCEREBROSIDASE ACTIVITY AND USES THEREOF” (Vanqua Bio, Inc., priority 2021, published 2024):

Target: T1, GCase (Homo sapiens, UniProt P04062)
T1 construct: endogenous in cells; host or cells: HeLa cells
T1 sequence (P04062 40-536): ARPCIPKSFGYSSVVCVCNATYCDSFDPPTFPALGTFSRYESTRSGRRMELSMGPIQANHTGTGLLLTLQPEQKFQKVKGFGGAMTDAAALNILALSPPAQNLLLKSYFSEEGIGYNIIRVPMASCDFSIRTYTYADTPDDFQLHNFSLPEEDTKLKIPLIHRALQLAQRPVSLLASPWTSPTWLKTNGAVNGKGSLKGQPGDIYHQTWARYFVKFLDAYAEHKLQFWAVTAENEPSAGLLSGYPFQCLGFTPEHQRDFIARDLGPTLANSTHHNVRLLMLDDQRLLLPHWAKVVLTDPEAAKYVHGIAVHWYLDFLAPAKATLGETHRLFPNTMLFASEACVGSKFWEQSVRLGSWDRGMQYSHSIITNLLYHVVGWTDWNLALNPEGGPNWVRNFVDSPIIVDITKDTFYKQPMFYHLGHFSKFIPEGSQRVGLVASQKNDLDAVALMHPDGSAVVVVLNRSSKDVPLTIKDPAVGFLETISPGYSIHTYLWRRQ
Assay: activation of GCase in a live cell PFB assay in HELA cells
Assay type: cell-based
Procedure: Exemplary compounds were evaluated for activation of GCase in a live cell PFB assay in HELA cells (essentially as described in Ysselstein et al., “LRRK2 kinase activity regulates lysosomal glucocerebrosidase in neurons derived from Parkinson's disease patients” Nature Communications (2019) 10:5570).

| Structure (SMILES) | EC50 [µM] |
| --- | --- |
| c1ccc(-c2nnc(C3CCCN(c4cncc(-c5nncs5)n4)C3)s2)cc1 (centres unmarked) [Compound 1, 2-[3-(5-phenyl-1,3,4-thiadiazol-2-yl)piperidin-1-yl]-6-(1,3,4-thiadiazol-2-yl)pyrazine] | 10 to 50 |
| FC(F)Cn1ncc2ncc(N3CCCC(c4nnc(-c5cccc(C(F)(F)F)n5)s4)C3)nc21 (centres unmarked) [Compound 2, 2-(5-{1-[1-(2,2-difluoroethyl)pyrazolo[3,4-b]pyrazin-6-yl]piperidin-3-yl}-1,3,4-thiadiazol-2-yl)-6-(trifluoromethyl)pyridine] | 10 to 50 |
| FC(F)(F)Cn1ncc2ncc(N3CCCC(F)(c4nnc(-c5cccc(C(F)(F)F)n5)s4)C3)nc21 (centres unmarked) [Compound 6, 2-(3-Fluoro-1-(1-(2,2,2-trifluoroethyl)-1H-pyrazolo[3,4-b]pyrazin-6-yl)piperidin-3-yl)-5-(6-(trifluoromethyl)pyridin-2-yl)-1,3,4-thiadiazole] | 10 to 50 |
| FC(F)(F)c1cccc(-c2nnc(C3(F)CCCN(c4cncc(-c5nncs5)n4)C3)s2)n1 (centres unmarked) [Compound 8, 2-(3-Fluoro-3-{5-[6-(trifluoromethyl)pyridin-2-yl]-1,3,4-thiadiazol-2-yl}piperidin-1-yl)-6-(1,3,4-thiadiazol-2-yl)pyrazine] | 10 to 50 |
| FC(F)(F)c1cccc(-c2nnc(C3(F)CCCN(c4cnc5ccccc5n4)C3)s2)n1 (centres unmarked) [Compound 13, 2-(3-Fluoro-3-{5-[6-(trifluoromethyl)pyridin-2-yl]-1,3,4-thiadiazol-2-yl}piperidin-1-yl)quinoxaline] | 10 to 50 |
| CCn1ncc2ncc(N3CCCC(c4nnc(-c5ccccc5)s4)C3)nc21 (centres unmarked) [Compound 15, 2-(1-(1-Ethyl-1H-pyrazolo[3,4-b]pyrazin-6-yl)piperidin-3-yl)-5-phenyl-1,3,4-thiadiazole] | 50 to 100 |
| Cc1nnc(C2CCCN(c3ncc4ccccc4n3)C2)s1 (centres unmarked) [Compound 16, 2-methyl-5-(1-(quinazolin-2-yl)piperidin-3-yl)-1,3,4-thiadiazole] | > 100 |
| COc1ncncc1-c1nnc(C2CCCN(c3cnc4ccccc4n3)C2)s1 (centres unmarked) [Compound 18, 2-(4-Methoxypyrimidin-5-yl)-5-(1-(quinoxalin-2-yl)piperidin-3-yl)-1,3,4-thiadiazole] | 10 to 50 |
| FC(F)Cn1ncc2ncc(N3CCCC(c4nnc(-c5ccccc5)s4)C3)nc21 (centres unmarked) [Compound 19, 2-(1-(1-(2,2-Difluoroethyl)-1H-pyrazolo[3,4-b]pyrazin-6-yl)piperidin-3-yl)-5-phenyl-1,3,4-thiadiazole] | < 10 |
| CCn1cnc2ncc(N3CCCC(c4nnc(-c5ccccc5)s4)C3)nc21 (centres unmarked) [Compound 20, 2-(1-(1-Ethyl-1H-imidazo[4,5-b]pyrazin-6-yl)piperidin-3-yl)-5-phenyl-1,3,4-thiadiazole] | < 10 |
| FC(F)Cn1ncc2ncc(N3CCCC(c4nnc(-c5ccc(C(F)(F)F)nc5)s4)C3)nc21 (centres unmarked) [Compound 21, 2-(1-(1-(2,2-Difluoroethyl)-1H-pyrazolo[3,4-b]pyrazin-6-yl)piperidin-3-yl)-5-(6-(trifluoromethyl)pyridin-3-yl)-1,3,4-thiadiazole] | < 10 |
| FC(F)(F)c1cccc(-c2nnc(C3(F)CCCN(c4cnc5cnn(C6COC6)c5n4)C3)s2)n1 (centres unmarked) [Compound 24, 2-(3-fluoro-1-(1-(oxetan-3-yl)-1H-pyrazolo[3,4-b]pyrazin-6-yl)piperidin-3-yl)-5-(6-(trifluoromethyl)pyridin-2-yl)-1,3,4-thiadiazole] | > 100 |
| FC(F)(F)c1cccc(-c2nnc(C3(F)CCCN(c4cnc5cnn(CC6COC6)c5n4)C3)s2)n1 (centres unmarked) [Compound 27, 2-(3-Fluoro-1-(1-(oxetan-3-ylmethyl)-1H-pyrazolo[3,4-b]pyrazin-6-yl)piperidin-3-yl)-5-(6-(trifluoromethyl)pyridin-2-yl)-1,3,4-thiadiazole] | < 10 |
| FC(F)Cn1ncc2ncc(N3C[C@@H]4[C@H](C3)[C@H]4c3nnc(-c4ccccc4)s3)nc21 [Compound 28, 2-((1R,5S,6R)-3-(1-(2,2-Difluoroethyl)-1H-pyrazolo[3,4-b]pyrazin-6-yl)-3-azabicyclo[3.1.0]hexan-6-yl)-5-phenyl-1,3,4-thiadiazole] | 10 to 50 |
| FC(F)(F)Oc1ccccc1-c1nnc(C2(F)CCCN(c3cncc(-c4nncs4)n3)C2)s1 (centres unmarked) [Compound 29, 2-(1-(6-(1,3,4-Thiadiazol-2-yl)pyrazin-2-yl)-3-fluoropiperidin-3-yl)-5-(2-(trifluoromethoxy)phenyl)-1,3,4-thiadiazole] | 10 to 50 |

Results, then the compound that gave them:

| EC50 [µM] | Structure (SMILES) |
| --- | --- |
| 10 to 50 | CCn1ccc2ncc(N3CCCC(c4nnc(-c5ccccc5)s4)C3)nc21 (centres unmarked) [Compound 3, 2-(1-(5-ethyl-5H-pyrrolo[2,3-b]pyrazin-3-yl)piperidin-3-yl)-5-phenyl-1,3,4-thiadiazole] |
| 10 to 50 | Fc1ccccc1-c1nnc(C2CCCN(c3cnc4ccccc4n3)C2)s1 (centres unmarked) [Compound 4, 2-(2-fluorophenyl)-5-(1-(quinoxalin-2-yl)piperidin-3-yl)-1,3,4-thiadiazole] |
| < 10 | FC(F)Cn1ncc2ncc(N3CCCC(c4nnc(-c5ccnc(C(F)(F)F)c5)s4)C3)nc21 (centres unmarked) [Compound 5, 2-(1-(1-(2,2-difluoroethyl)-1H-pyrazolo[3,4-b]pyrazin-6-yl)piperidin-3-yl)-5-(2-(trifluoromethyl)pyridin-4-yl)-1,3,4-thiadiazole] |
| 10 to 50 | FC(F)Cn1ncc2ncc(N3CCCC(c4nnc(-c5cccnc5C(F)(F)F)s4)C3)nc21 (centres unmarked) [Compound 7, 2-(1-(1-(2,2-Difluoroethyl)-1H-pyrazolo[3,4-b]pyrazin-6-yl)piperidin-3-yl)-5-(2-(trifluoromethyl)pyridin-3-yl)-1,3,4-thiadiazole] |
| 10 to 50 | O=C(c1ccc2cc[nH]c2c1)N1CCCC(c2nnc(-c3ccccc3C(F)(F)F)s2)C1 (centres unmarked) [Compound 9, (1H-Indol-6-yl)(3-(5-(2-(trifluoromethyl)phenyl)-1,3,4-thiadiazol-2-yl)piperidin-1-yl)methanone] |
| 10 to 50 | Fc1ccccc1-c1nnc(C2CCCN(c3ncc4ccccc4n3)C2)s1 (centres unmarked) [Compound 10, 2-(2-Fluorophenyl)-5-(1-(quinazolin-2-yl)piperidin-3-yl)-1,3,4-thiadiazole] |
| 10 to 50 | c1ccc(-c2nnc(C3CCCN(c4cnc5ccccc5n4)C3)s2)cc1 (centres unmarked) [Compound 11, 2-Phenyl-5-(1-(quinoxalin-2-yl)piperidin-3-yl)-1,3,4-thiadiazole] |
| 10 to 50 | O=C(c1ccc2cc[nH]c2c1)N1CCCC(c2nnc(-c3ccccc3)s2)C1 (centres unmarked) [Compound 12, (1H-Indol-6-yl)(3-(5-phenyl-1,3,4-thiadiazol-2-yl)piperidin-1-yl)methanone] |
| 10 to 50 | c1ccc(-c2nnc(C3CCCN(c4ncc5ccccc5n4)C3)s2)cc1 (centres unmarked) [Compound 14, 2-Phenyl-5-(1-(quinazolin-2-yl)piperidin-3-yl)-1,3,4-thiadiazole] |
| 10 to 50 | O=C(c1ccc2cc[nH]c2c1)N1CCCC(c2nnc(-c3cccnc3C(F)(F)F)s2)C1 (centres unmarked) [Compound 17, (1H-Indol-6-yl)(3-(5-(2-(trifluoromethyl)pyridin-3-yl)-1,3,4-thiadiazol-2-yl)piperidin-1-yl)methanone] |
| < 10 | FC(F)(F)Oc1ccccc1-c1nnc(C2CCCN(c3cncc(-c4nncs4)n3)C2)s1 (centres unmarked) [Compound 22, 2-(1-(6-(1,3,4-thiadiazol-2-yl)pyrazin-2-yl)piperidin-3-yl)-5-(2-(trifluoromethoxy)phenyl)-1,3,4-thiadiazole] |
| > 100 | FC(F)Cn1ncc2ncc(N3C[C@@H]4[C@H](C3)[C@H]4c3nnc(-c4cccnc4C(F)(F)F)s3)nc21 [Compound 23, 2-((1R,5S,6r)-3-(1-(2,2-Difluoroethyl)-1H-pyrazolo[3,4-b]pyrazin-6-yl)-3-azabicyclo[3.1.0]hexan-6-yl)-5-(2-(trifluoromethyl)pyridin-3-yl)-1,3,4-thiadiazole] |
| 10 to 50 | O=C(c1ccc2ccn(CC3COC3)c2c1)N1CCCC(F)(c2nnc(-c3cccc(C(F)(F)F)n3)s2)C1 (centres unmarked) [Compound 25, (3-Fluoro-3-(5-(6-(trifluoromethyl)pyridin-2-yl)-1,3,4-thiadiazol-2-yl)piperidin-1-yl)(1-(oxetan-3-ylmethyl)-1H-indol-6-yl)methanone] |
| 10 to 50 | O=C(c1ccc2ccn(C3COC3)c2c1)N1CCCC(F)(c2nnc(-c3cccc(C(F)(F)F)n3)s2)C1 (centres unmarked) [Compound 26, (3-Fluoro-3-(5-(6-(trifluoromethyl)pyridin-2-yl)-1,3,4-thiadiazol-2-yl)piperidin-1-yl)(1-(oxetan-3-yl)-1H-indol-6-yl)methanone] |
